Results from patent US20080312263A1, “PHARMACEUTICAL COMPOSITIONS FOR THE PREVENTION AND TREATMENT OF ATHEROSCLEROSIS” (UNIVERSITE RENE DESCARTES-PARIS 5, priority 2004, published 2008).
“Also recorded” adds a separate entry of the source.

What was measured:
[1] = tested on: New Zealand White rabbit; details: cited from earlier work
[2] = tested on: New Zealand White rabbits; details: 2.5 mg/kg/day; cited from earlier work
[3] = tested on: Watanabe rabbits; test: Lipid profile (plasmatic cholesterol, triglycerides, HDL, LDL) in treated Watanabe rabbits; type: in vivo, rabbit
Procedure: 2. […] The cholesterol is assayed according to an enzymatic colorimetric test using a cholesterol-esterase and a cholesterol-oxidase, followed by a reaction with a peroxidase. The latter reacts with hydrogen peroxide and releases a red derivative the stain intensity of which (measured between 550 and 700 nm) is directly proportional to the cholesterol concentration. The triglyceride assay is also based on this principle, using a lipase which releases glycerol, and a peroxidase which reacts with the hydrogen peroxide and forms a red compound. The HDL cholesterol is assayed by an enzymatic calorimetric test in two phases. The first selects the different lipid fractions by means of dextran sulphate. […] The results are expressed in mmol/l. The kits necessary for all these assays are supplied by RANDOX (Montpellier, France).

[4] = tested on: Watanabe rabbits; test: Macroscopic study of the aortas: surface area of the lesions by planimetry; type: in vivo, rabbit
Procedure: After eight weeks, a sampling of serum (about 1 ml) is carried out then the animals are anaesthetized with an injection of heparinized pentobarbital, and finally sacrificed.
On the day of sacrifice, after anaesthesia, in the shortest possible time, the animal is opened along the whole length of the cervico-thoracic region. The aorta is incised as low as possible. Using curved scissors, the aorta is removed from the aortic arch as far as the level of the iliac bifurcation following the vertebral column. The aorta is first cleaned in physiological serum and the fatty tissues are removed from its external tunica. It is fixed for 20 minutes in a 2% paraformaldehyde-2% glutaraldehyde mixture then opened along its length. It is then again immersed in the same fixer for 24 hours, after which the aorta is rinsed in 70% ethanol, then stained with Soudan IV for 15 minutes. It is once again rinsed in 80% ethanol for 20 minutes then under running water for 1 hour (22). […] The images are analyzed by means of planimetry software (Scion Image) which makes it possible to determine the surface of the lesions. Finally the aorta is fixed in the same fixer with a view to microscopic study.

[5] = Monitoring of the animals: weight and food intake; type: in vivo, rabbit; details: not included in the study
Procedure: Twenty-four Watanabe rabbits (Centre de Production Animale, Olivet, France) which are hyperlipidaemic due to an hereditary LDL-receptor (LDL-R) deficiency, homozygous, and six weeks old, are used. Each animal is placed in an individual cage and receives a food ration of 200 g to 250 g per day.
(§1) The food intake is measured daily and the animals are weighed once a week. Plasma samples are taken every fifteen days from the marginal ear vein. The blood, collected in heparin tubes, is centrifuged (4° C., 2000 g, 15 minutes). Part of the plasma is deproteinized by a solution of sulphosalicylic acid (30%) then divided into aliquot fractions with a view to an assay of the amino acids. The remainder of the plasma is aliquoted into several fractions of about 200 μl, and stored at −80° C.

[6] = rabbit, in vivo
Procedure: Each animal is placed in an individual cage and receives a food ration of 200 g to 250 g per day.
as §1
The plasmatic arginine, ornithine and citrulline concentrations are determined on a JEOL (Tokyo, Japan) amino acid analyzer. The amino acids are separated by cation-exchange chromatography. On leaving the column, they are developed by a ninhydrin stain reaction. The reaction obtained is quantified by photometry at 570 and 440 nm. The results are expressed in μmol/l.

[7] = tested on: hypercholesterolemic rabbits; details: enriched diet over 12 to 16 weeks; cited from earlier work
[8] = tested on: Watanabe rabbits; details: 16 weeks; cited from earlier work

CC[C@H](C)C(=O)O[C@H]1C[C@@H](C)C=C2C=C[C@H](C)[C@H](CC[C@@H]3C[C@@H](O)CC(=O)O3)[C@H]21 [lovastatin]
reduction in cholesterol ([1]; 16 weeks, New Zealand White rabbit): 32%
plaque progression ([1]; New Zealand White rabbits): slowed down the plaque progression

CC(C)c1c(C(=O)Nc2ccccc2)c(-c2ccccc2)c(-c2ccc(F)cc2)n1CC[C@@H](O)C[C@@H](O)CC(=O)O [atorvastatin, Atorvastatin, reference compound]
size of the lesions [2]: reduction in the size of the lesions
effect on LDL concentration ([3]; FIG. 6, during treatment): induces a reduction
reduction of the LDL fraction ([3]; LDL calculated by Friedewald formula, between T0 and T8): 27.16%

N=C(N)NCCC[C@H](N)C(=O)O [arginine, L-Arginine]
lesion surface smaller than the control by a factor ([4]; T8): 1.3
surface area of the lesions (whole aorta) ([4]; T8, versus the control, FIG. 10): smaller
surface area of the lesions, distal half of the aorta ([4]; T8, FIG. 11): no effect
animals died before the end of the protocol [5]: two animals
L-Arginine concentration in general [6]: doubled
plasmatic arginine concentration, at T4 [6]: doubled
plasmatic arginine concentration, at T8 [6]: drops
effect on the plasmatic cholesterol ([3]; 8 weeks treatment, versus control at T8, FIG. 3): no effect
effect on the lipid profile ([3]; arginine diet alone): no appreciable effect
increase in the plasmatic cholesterol concentration ([3]; between T0 and T8): 30%
plasmatic triglycerides concentration, course ([3]; between T0 and T8, FIG. 4): increases with age; also recorded: increase by more than half
atheromatous plaque area [7]: stabilization

O=C(O)C[C@H](O)C[C@H](O)/C=C/c1c(C2CC2)nc2ccccc2c1-c1ccc(F)cc1 [pitavastatin]
reduction in plasmatic cholesterol [8]: 28.6%
